Only the 19 paired bases of each siRNA are shown; overhangs and chemistry are not given here.
Further: test concentration or dose not given here.

In the first data set the target is DBI. The data set can be described thus: five studies, different assays. The note with it: siRNA.
Regarding “sense UGAAAGCUUACAUCAACAA / antisense UUGUUGAUGUAAGCUUUCA”, the target inhibition turned out to be 33.7%.
The same measure, in the same setting: under “sense AAGAGCUAAAGAAAAAAUA / antisense UAUUUUUUCUUUAGCUCUU” stands 68%; under “sense UUACUGACUUUCCUUGAGU / antisense ACUCAAGGAAAGUCAGUAA”, -8.35%.
Turning to “sense ACUGAGACAAUGCCUUGUU / antisense AACAAGGCAUUGUCUCAGU”, the target inhibition was 6.01%.
As for “sense AAGAUGCCAUGAAAGCUUA / antisense UAAGCUUUCAUGGCAUCUU”, the target inhibition was determined as 50.7%.
As for “sense AAACGAUUACUGACUUUCC / antisense GGAAAGUCAGUAAUCGUUU”, the target inhibition is -18.6%.
Still for that read-out and setting: as for “sense AAAGUAGAAGAGCUAAAGA / antisense UCUUUAGCUCUUCUACUUU”, the figure is 71.8%; as for “sense AGAUGCCAUGAAAGCUUAC / antisense GUAAGCUUUCAUGGCAUCU”, -9.13%.
Still for that read-out and setting: as for “sense UGGGAUGCCUGGAAUGAGC / antisense GCUCAUUCCAGGCAUCCCA”, the figure is 4.9%.

A further data set concerns the target GAPDH. Nature of the data set: five studies, different assays. The note with it: siRNA.
For the substance “sense UGCUGAUGCCCCCAUGUUC / antisense GAACAUGGGGGCAUCAGCA”, the target inhibition was found to be 12.7%.
The same measure, in the same setting: under “sense GAUCAUCAGCAAUGCCUCC / antisense GGAGGCAUUGCUGAUGAUC” stands 70.8%; under “sense CCAAAAGGGUCAUCAUCUC / antisense GAGAUGAUGACCCUUUUGG”, 93.9%.
With “sense CAGGGGGGAGCCAAAAGGG / antisense CCCUUUUGGCUCCCCCCUG”, the target inhibition is -24.4%.
The same measure, in the same setting: as for “sense UGACAACUUUGGUAUCGUG / antisense CACGAUACCAAAGUUGUCA”, the figure is 43%; as for “sense GGAGCCAAAAGGGUCAUCA / antisense UGAUGACCCUUUUGGCUCC”, 88.7%.
The same measure, in the same setting: as for “sense UCAUGGGUGUGAACCAUGA / antisense UCAUGGUUCACACCCAUGA”, the figure is 60.5%; as for “sense AAGUAUGACAACAGCCUCA / antisense UGAGGCUGUUGUCAUACUU”, 94.2%; as for “sense GUAUGACAACAGCCUCAAG / antisense CUUGAGGCUGUUGUCAUAC”, 77.6%.
As to “sense UGUUCGUCAUGGGUGUGAA / antisense UUCACACCCAUGACGAACA”, the target inhibition came out at 80.3%.
On to “sense ACCAUGAGAAGUAUGACAA / antisense UUGUCAUACUUCUCAUGGU”, for which the target inhibition came out at 92.5%.
The same measure, in the same setting: as for “sense AAGGACUCAUGACCACAGU / antisense ACUGUGGUCAUGAGUCCUU”, the figure is -17.4%.
Same read-out and setting: as for “sense GUCAUCAUCUCUGCCCCCU / antisense AGGGGGCAGAGAUGAUGAC”, the figure is 69.8%; as for “sense AUGACAACAGCCUCAAGAU / antisense AUCUUGAGGCUGUUGUCAU”, 58.3%.
Turning to “sense GACAACAGCCUCAAGAUCA / antisense UGAUCUUGAGGCUGUUGUC”, the target inhibition stood at 94.2%.
For “sense CAUGAGAAGUAUGACAACA / antisense UGUUGUCAUACUUCUCAUG”, the target inhibition stood at 92.4%.
On the same count and under the same terms, under “sense GCACCACCAACUGCUUAGC / antisense GCUAAGCAGUUGGUGGUGC” stands 38.6%; under “sense GUGUGAACCAUGAGAAGUA / antisense UACUUCUCAUGGUUCACAC”, 92.7%.
For “sense CCCCUGGCCAAGGUCAUCC / antisense GGAUGACCUUGGCCAGGGG”, the target inhibition is -2.51%.
Regarding “sense UGGCCAAGGUCAUCCAUGA / antisense UCAUGGAUGACCUUGGCCA”, the target inhibition was 91.5%.

In a further data set the target is PLK1. The data set can be described thus: five studies, different assays. Conditions: siRNA.
Regarding “sense AUGACUCAACACGCCUCAU / antisense AUGAGGCGUGUUGAGUCAU”, the target inhibition is 58.4%.
As for “sense AUGAAGAUCUGGAGGUGAA / antisense UUCACCUCCAGAUCUUCAU”, the target inhibition stood at 55%.
Still for that read-out and setting: as for “sense GGGCGGCUUUGCCAAGUGC / antisense GCACUUGGCAAAGCCGCCC”, the figure is 30.6%; as for “sense GAUGUCCAUGGAAAUAUCC / antisense GGAUAUUUCCAUGGACAUC”, 43.9%; as for “sense UAUUUCCGCAAUUACAUGA / antisense UCAUGUAAUUGCGGAAAUA”, 57.1%.
Still for that read-out and setting: under “sense AGAUCACCCUCCUUAAAUA / antisense UAUUUAAGGAGGGUGAUCU” stands 72.5%; under “sense UUUGAGACUUCUUGCCUAA / antisense UUAGGCAAGAAGUCUCAAA”, 82.2%; under “sense AGAUUGUGCCUAAGUCUCU / antisense AGAGACUUAGGCACAAUCU”, 68.5%.
As for “sense AGAAUGAAUACAGUAUUCC / antisense GGAAUACUGUAUUCAUUCU”, the target inhibition came out at 58%.
For “sense CAGUUUCGAGGUGGAUGUG / antisense CACAUCCACCUCGAAACUG”, the target inhibition was 52.6%.

For another data set, the target named is Renilla luciferase. The data set can be described thus: five studies, different assays. The note with it: siRNA.
For “sense AUCAUGAGAAAGUUAGAAC / antisense GUUCUAACUUUCUCAUGAU”, the target inhibition stood at 47.3%.
Still for that read-out and setting: under “sense CAGCAUAUCUUGAACCAUU / antisense AAUGGUUCAAGAUAUGCUG” stands 83.7%.
Consider “sense GAACAAAGGAAACGGAUGA / antisense UCAUCCGUUUCCUUUGUUC”, for which the target inhibition came out at 84.4%.
Still for that read-out and setting: under “sense UUUAUGGCGACAUGUUGUG / antisense CACAACAUGUCGCCAUAAA” stands 29.4%; under “sense AAGUGUAGUAGAUGUGAUU / antisense AAUCACAUCUACUACACUU”, 87.9%; under “sense GAUCAAAUCUGAAGAAGGA / antisense UCCUUCUUCAGAUUUGAUC”, 90.9%.
Same read-out and setting: as for “sense AGAUGCACCUGAUGAAAUG / antisense CAUUUCAUCAGGUGCAUCU”, the figure is 63.9%; as for “sense AGUUCGUCGUCCAACAUUA / antisense UAAUGUUGGACGACGAACU”, 66.5%.
On to “sense UCUUACUGCAUGGUUUGAA / antisense UUCAAACCAUGCAGUAAGA”, for which the target inhibition was determined as 52.3%.
Turning to “sense GCCAAGAAGUUUCCUAAUA / antisense UAUUAGGAAACUUCUUGGC”, the target inhibition came out at 72.2%.
As to “sense UCUACGUGCAAGUGAUGAU / antisense AUCAUCACUUGCACGUAGA”, the target inhibition was found to be 89.5%.
Turning to “sense GAAUUUGCAGCAUAUCUUG / antisense CAAGAUAUGCUGCAAAUUC”, the target inhibition was found to be 84.8%.

The target in the next data set is placental-type alkaline phosphatase. Nature of the data set: five studies, different assays. The note with it: siRNA.
Turning to “sense GCCAAGAACCUCAUCAUCU / antisense AGAUGAUGAGGUUCUUGGC”, the target inhibition was determined as 90.8%.
For the substance “sense GAAACGGUCCAGGCUAUGU / antisense ACAUAGCCUGGACCGUUUC”, the target inhibition worked out at 5.96%.
On the same count and under the same terms, under “sense CGGAAACGGUCCAGGCUAU / antisense AUAGCCUGGACCGUUUCCG” stands 80.2%; under “sense CUUCAUAGCGCACGUCAUG / antisense CAUGACGUGCGCUAUGAAG”, 16.5%; under “sense CGGAUGUUACCGAGAGCGA / antisense UCGCUCUCGGUAACAUCCG”, 32%.
With “sense UCUGGUGCAGGAAUGGCUG / antisense CAGCCAUUCCUGCACCAGA”, the target inhibition was determined as 30%.
Regarding “sense ACCUCAUCAUCUUCCUGGG / antisense CCCAGGAAGAUGAUGAGGU”, the target inhibition came to 49%.
Consider “sense ACAGACAGCCGCCAAGAAC / antisense GUUCUUGGCGGCUGUCUGU”, for which the target inhibition amounted to 54.7%.
Same read-out and setting: as for “sense GGGCGGGCCAGCUCACCAG / antisense CUGGUGAGCUGGCCCGCCC”, the figure is 20%; as for “sense CUACACGGUCCUCCUAUAC / antisense GUAUAGGAGGACCGUGUAG”, 21.2%; as for “sense CAAACAUGUGCCAGACAGU / antisense ACUGUCUGGCACAUGUUUG”, 88%.
The same measure, in the same setting: as for “sense AGUACCCAGAUGACUACAG / antisense CUGUAGUCAUCUGGGUACU”, the figure is 1.85%; as for “sense GAAUCUGGUGCAGGAAUGG / antisense CCAUUCCUGCACCAGAUUC”, 56.5%.
Same read-out and setting: under “sense GAGUGCAGCACGCCUCGCC / antisense GGCGAGGCGUGCUGCACUC” stands -5%.
As for “sense CUUUGAGCCUGGAGACAUG / antisense CAUGUCUCCAGGCUCAAAG”, the target inhibition worked out at 79%.
Same read-out and setting: as for “sense AGGAGAACCCGGACUUCUG / antisense CAGAAGUCCGGGUUCUCCU”, the figure is 81%.

Values taken from the OligoGym collection.
